Experimental data: PMC7473970, “Preformulation Studies of a Stable PTEN-PDZ Lipopeptide Able to Cross an In Vitro Blood-Brain-Barrier Model as a Potential Therapy for Alzheimer’s Disease” (Pharmaceutical Research, 2020)
Residues, ends and D or L forms follow the SMILES beside them.

Assays:
Assay type in all cases: in vitro ADME
[1] = In vitro stability in simulated intestinal fluid (mouse intestinal wash); details: 120 μL of 5 mM DMSO stock in 1080 μL, 37°C, 0-1440 min, HPLC-UV 220 nm, n = 3
Experimental: (§1) The samples were analyzed at 40°C on a Phenomenex Lichrosorb RP8 C8 column (4.0 mm × 250 mm, 5 μm), using the gradient elution method on an Agilent HPLC system (Agilent Technologies, Cheadle, UK) equipped with an 1100 series degasser, quaternary pump, autosampler, and column heater, and attached to an Agilent 1200 series PDA detector and a 1250 series fluorescent detector. The flow rate was set at 1.2 mL min^-1, and the injection volume was set at 40 μL, while detection was performed at 220 nm. The mobile phase was a mixture of mobile phase A (0.1% TFA in water) and phase B (0.08% TFA in acetonitrile), and in the first 5 min, the mobile phase was an 8:2 ratio of A:B (v/v) and from 5 to 15 min the percentage of B was raised from 8:2 to 1:9 (v/v). Linear calibration curves were constructed for both peptides between 0.1–100 μg.mL^−1. The retention time for the human Lau–PTEN-PDZ, mouse Lau–PTEN-PDZ, human Myr–PTEN-PDZ, and mouse Myr–PTEN-PDZ was 12.03, 11.60, 13.68, and 13.91, respectively.
The duodenum and ileum were excised from 10 non-fasted CD-1 male mice (7 weeks-old: Charles River Laboratories) that were sacrificed with CO2. Each duodenum and ileum were washed with 6 ml of phosphate buffer (50 mM, pH 6.63), and all the washes were pooled prior to centrifugation at 4000 rpm for 15 min at 4°C (Heraeus Multifuge 3sf) ([7],[15]). The intestinal wash was removed and frozen at −80°C prior to using it in stability studies without further dilution. Peptides stocks (5 mM in DMSO) were prepared and maintained at −20°C prior to performing stability studies. A stock peptide solution (120 μL) was added to the diluted pre-warmed (37°C) intestinal wash (1080 μL) with agitation at 100 rpm (Grant Aqua Waterbath), and samples (80 μL) were taken at 0, 15, 30, 45, 60, 90, 120, 180, 240, 360 and 1440 min, and diluted with ice-cold glacial acetic acid (17.5 M): acetonitrile (5:95 v/v, 80 μL) to quench the enzyme activity. Samples were vortexed and left in −80°C at least overnight to maximize protein precipitation, and after vortexing again for 15 min and centrifuging, the supernatant was analyzed by HPLC as described above.

[2] = In vitro stability in 50% v/v mouse plasma; details: 37°C, HPLC-UV 220 nm, one phase decay, least square fit, n = 3
Experimental: CD-1 male mice (7 weeks old: Charles River Laboratories) were sacrificed with CO2, and blood was collected in K3E EDTA spray-coated vacutainers and kept on ice prior to centrifugation at 3000 rpm for 15 min at 4°C (Heraeus Multifuge 3sf). Mouse plasma samples were stored at −80°C before use in stability studies. Study was approved by the University of Portsmouth Animal Welfare and Ethical Review Body (UoP AWERB body, 817).
For testing, the plasma was diluted (1:1) in PBS without phenol and pre-warmed to 37°C. Peptides stocks (5 mM in DMSO) were prepared and maintained at −20°C before performing the stability studies. Peptide stock solutions (120 μL) were added to pre-warmed diluted plasma (50% v/v, 1080 μL) and maintained at 37°C with agitation (100 rpm: Grant Aqua Waterbath, Royston, UK). Samples (80 μL) were taken at 0, 3, 6,9, 15, 30, 45, 60, 90, 120, 180, 240, 360 and 1440 min, diluted with ice-cold acetonitrile (80 μL), vortexed and left in −80°C at least overnight to favor maximal protein precipitation. The samples were then vortexed again for 15 min (SciQuip microplate shaker, Shropshire, UK), centrifuged in a Thermo Sci Jouan B4i Centrifuge (Hemel Hampstead, UK) and the supernatant was transferred to an HPLC vial (200 μL).
as §1

[3] = Permeability across in vitro 2D human blood-brain barrier model; details: read-out: Papp0-4h, Experiment 2
[4] = Simulated intestinal fluid = undiluted pooled CD-1 mouse duodenum/ileum wash, phosphate buffer pH 6.63, one phase decay fit

k ([1]; Simulated intestinal fluid = undiluted pooled CD-1 mouse duodenum/ileum wash in 50 mM phosphate buffer pH 6.63, 100 rpm, one phase decay, least square fit): 0.15 h⁻¹
t1/2 (h) [1, 4]: 4.52 h
t1/2 (min) [1, 4]: 271.02 min
k ([2]; 50% v/v CD-1 mouse plasma (K3 EDTA) in PBS, 120 μL of 5 mM DMSO stock in 1080 μL, 100 rpm, 0-1440 min): 0.80 h⁻¹
t1/2 (h) ([2]; 50% v/v mouse plasma in PBS): 0.87 h
t1/2 (min) ([2]; 50% v/v mouse plasma in PBS): 52.16 min
Papp A→B at 100 μM [3]: 2.63 ± 0.08 ×10⁻⁶ cm/s
SMILES: CCCCCCCCCCCCCC(=O)N[C@@H](CCC(N)=O)C(=O)N[C@@H](Cc1c[nH]cn1)C(=O)N[C@@H](CO)C(=O)N[C@@H](CCC(N)=O)C(=O)N[C@H](C(=O)N[C@H](C(=O)N[C@@H](CCCCN)C(=O)N[C@H](C(=O)O)C(C)C)[C@@H](C)O)[C@@H](C)CC [Mouse Myr-PTEN-PDZ] (HELM PEPTIDE1{[CCCCCCCCCCCCCC(=O)[*:2]].Q.H.S.Q.I.T.K.V}$$$$V2.0)
